Source: patent publication US5023364A, “Phenoxyalkylcarboxylic acid derivatives and process for their preparation” (Kyorin Pharmaceutical Co., Ltd., priority 1987, dated 1991)

Test system: leukotriene D4 -induced bronchoconstriction
Assay: Inhibition of bronchoconstriction in guinea pigs (leukotriene D4-induced, modified Konzett-Rossler method)
Assay type: in vivo, Male Hartley guinea pig
Conditions: p.o., 2 hours before leukotriene D4 challenge (3 μg/kg, i.v.)
Procedure: Inhibition of bronchoconstriction in guinea pigs
Male Hartley guinea pig weighing about 450 g was anesthetized with sodium pentobarbital (30 mg/kg,i.p.), and the changes in transpulmonary pressure was measured by modifying the method of Konzett-Rossler (J. Harvey, et al., J. Pharmacol. Method. 9, 147-155, 1983) under an artificial ventilation. Bronchoconstrictor response was induced by bolus injection of leukotriene D4 (3 μg/kg,i.v.) from jugular vein. Animal was treated with indomethacin (10 mg/kg,i.v.) and propranolol (1 mg/kg,i.v.) before leukotriene D4 challenge. Test compounds suspended in 5% Gum Arabic solution were administered orally 2 hours before leukotriene D4 challenge.

With `CCCc1c(OCCOc2ccc(C(C)=O)c(OCCCC(=O)O)c2CCC)ccc(C(C)=O)c1O` [Example 6, 4-[6-acetyl-3-[2-(4-acetyl-3-hydroxy-2-propylphenoxy)-ethoxy]-2-propylphenoxy]butanoic acid] the “Inhibition (%)” value (12.5 mg/kg) was 28.6% and the “Inhibition (%)” value (50 mg/kg) was 86.6%.

With `CCCc1c(OCCCCOc2ccc(C(C)=O)c(OCCCC(=O)O)c2CCC)ccc(C(C)=O)c1O` [Example 8, 4-[6-acetyl-3-[4-(4-acetyl-3-hydroxy-2-propylphenoxy)butoxy]-2-propylphenoxy]butanoic acid] the “Inhibition (%)” value (50 mg/kg) was 83.1%.

For `CCCc1c(OCCCOc2ccc(C(C)=O)c(OCCCCC(=O)O)c2CCC)ccc(C(C)=O)c1O` [Example 7, 5-[6-acetyl-3-[3(4-acetyl-3-hydroxy-2-propylphenoxy)propoxy]-2-propylphenoxy]pentanoic acid], the “Inhibition (%)” value (12.5 mg/kg) was 45.2% and the “Inhibition (%)” value (50 mg/kg) was 94.8%.

In the case of `CCCc1c(OCCCCCOc2c(C(C)=O)ccc(OCC(=O)O)c2CCC)ccc(C(C)=O)c1O` [Ref. 2, [4Acetyl-3-[5-(4-acetyl-3-hydroxy-2-propylphenoxy)-pentyloxy]-2-propylpheoxy]acetic acid, reference compound], the “Inhibition (%)” value (50 mg/kg) is reported as 16.9%.

`CCCc1c(OCCCOc2ccc(C(C)=O)c(OCCCC(=O)O)c2CCC)ccc(C(C)=O)c1O` [Example 5, 4-[6-Acetyl-3-[3-(4-acetyl-3-hydroxy-2-propylphenoxy)propoxy]-2-propylphenoxy]butanoic acid] was tested, and the “Inhibition (%)” value (1.5 mg/kg) was 27.4%, the “Inhibition (%)” value (6.25 mg/kg) was 41.7% and the “Inhibition (%)” value (12.5 mg/kg) was 59.0%. For the same compound, the “Inhibition (%)” value (50 mg/kg) was 82.7%.

`CCCc1c(OCCCOc2ccc(C(C)=O)c(OCC(=O)O)c2CCC)ccc(C(C)=O)c1O` [Ref. 1, [6-acetyl-3-[3-(4-acetyl3-hydroxy-2-propylphenoxy)propoxy]-2-propylphenoxy]acetic acid, reference compound] was tested, and the “Inhibition (%)” value (12.5 mg/kg) was -12.1% and the “Inhibition (%)” value (50 mg/kg) was 56.1%.
